In PMC6428052 (Journal of medicinal chemistry, 2018):

Experiments:
[1] = tested on: 45 receptors, transporters and ion channels; experiment: PDSP comprehensive off-target screen; type: binding
[2] = target: 5HT2B (Homo sapiens, UniProt P41595); experiment: PDSP off-target binding; details: read-out: Ki, 5HT2B
[3] = target: H3 (Homo sapiens, UniProt Q9Y5N1); experiment: PDSP off-target binding; details: read-out: Ki, H3
[4] = target: T1, hP2Y14R (Homo sapiens, UniProt Q15391); type: binding; details: for fold less potent than 7 in P2Y14R binding: primary amino sulfonamides with two and four methylenes vs three
T1 sequence (Q15391 1-338): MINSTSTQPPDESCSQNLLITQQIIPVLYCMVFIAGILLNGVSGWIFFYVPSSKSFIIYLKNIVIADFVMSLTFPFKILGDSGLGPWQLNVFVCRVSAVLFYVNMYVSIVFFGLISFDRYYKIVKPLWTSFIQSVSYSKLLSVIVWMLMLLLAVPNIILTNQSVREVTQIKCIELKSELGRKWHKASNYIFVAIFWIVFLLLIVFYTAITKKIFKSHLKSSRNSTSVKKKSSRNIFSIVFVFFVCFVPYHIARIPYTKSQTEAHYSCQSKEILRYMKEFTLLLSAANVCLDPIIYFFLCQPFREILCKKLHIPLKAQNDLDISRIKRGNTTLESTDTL

[5] = Plasma stability; details: at 120 min; plasma of three species: human, rat and mouse
[6] = Stability in simulated gastric and intestinal fluids; details: after 240 min
[7] = In vivo pharmacokinetics in rat; details: male Sprague Dawley rat, oral administration 1–10 mg/kg
[8] = tested on: CACO-2 cell; experiment: CACO-2 cell permeability; details: CACO-2 cells
[9] = carboxylate replaced by tetrazole

Chain of H3 (Q9Y5N1 whole entry): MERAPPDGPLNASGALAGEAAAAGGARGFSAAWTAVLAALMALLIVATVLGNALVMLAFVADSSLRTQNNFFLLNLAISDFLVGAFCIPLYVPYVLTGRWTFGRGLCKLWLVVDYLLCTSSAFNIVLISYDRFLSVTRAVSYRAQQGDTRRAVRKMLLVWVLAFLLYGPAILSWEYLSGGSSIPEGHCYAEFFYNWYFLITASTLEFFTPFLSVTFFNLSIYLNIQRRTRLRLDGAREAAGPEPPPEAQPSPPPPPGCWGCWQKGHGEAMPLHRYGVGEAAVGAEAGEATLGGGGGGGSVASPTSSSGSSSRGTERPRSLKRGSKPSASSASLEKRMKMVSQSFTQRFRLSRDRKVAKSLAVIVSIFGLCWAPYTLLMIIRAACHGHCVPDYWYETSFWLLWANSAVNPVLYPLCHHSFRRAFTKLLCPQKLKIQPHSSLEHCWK
Chain of 5HT2B (P41595 whole entry, species assumed): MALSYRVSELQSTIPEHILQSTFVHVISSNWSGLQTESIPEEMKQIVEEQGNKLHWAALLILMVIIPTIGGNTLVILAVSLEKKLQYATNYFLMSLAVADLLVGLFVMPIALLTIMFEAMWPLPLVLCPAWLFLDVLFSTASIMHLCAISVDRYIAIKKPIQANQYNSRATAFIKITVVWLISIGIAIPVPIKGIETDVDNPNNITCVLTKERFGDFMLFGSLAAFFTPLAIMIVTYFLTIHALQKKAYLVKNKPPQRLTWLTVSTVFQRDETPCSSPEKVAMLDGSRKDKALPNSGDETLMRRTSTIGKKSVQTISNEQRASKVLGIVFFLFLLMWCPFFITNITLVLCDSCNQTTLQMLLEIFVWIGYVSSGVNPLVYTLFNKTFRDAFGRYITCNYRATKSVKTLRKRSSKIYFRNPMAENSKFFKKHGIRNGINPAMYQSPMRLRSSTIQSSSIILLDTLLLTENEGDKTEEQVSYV

O=C(O)c1cc(O)c2ccc(-c3ccc(C(F)(F)F)cc3)cc2c1 [37d]
Off-target interactions in the comprehensive PDSP screen [1]: bound only to NET

CC(C)(C)OC(=O)NCCCCCCn1cc(CCCCN2CCC(c3ccc(-c4cc(C(=O)O)cc5cc(-c6ccc(C(F)(F)F)cc6)ccc45)cc3)CC2)nn1 [compound 3c, 4-(4-(1-(4-(1-(6-((tert-Butoxycarbonyl)amino)hexyl)-1H-1,2,3-triazol-4-yl)butyl)piperidm-4-yl)phenyl)-7-(4-(trifluoromethyl)phenyl)-2-naphthoic acid]
Ki [2]: 2780 nM
Ki [3]: 2770 nM

NCCCCCCn1cc(CCCCN2CCC(c3ccc(-c4cc(C(=O)O)cc5cc(-c6ccc(C(F)(F)F)cc6)ccc45)cc3)CC2)nn1 [compound 3d, 4-(4-(1-(4-(1-(6-Ammohexyl)-1H-1,2,3-triazol-4-yl)butyl)piperidm-4-yl)phenyl)-7-(4-(trifluoromethyl)phenyl)-2-naphthoic acid]
Off-target interactions in the comprehensive PDSP screen [1]: displayed extensive off-target interactions with biogenic amine receptors

NCCNS(=O)(=O)c1ccc(-c2cc(C(=O)O)cc(-n3cc(-c4ccc(C(F)(F)F)cc4)nn3)c2)s1 [compound 5, 3-(5-(N-(2-Aminoethyl)sulfamoyl)thiophen-2-yl)-5-(4-(4-(trifluoromethyl)phenyl)-1H-1,2,3-triazol-1-yl)benzoic acid]
fold less potent than 7 in P2Y14R binding [4]: 3 fold

NCCCNS(=O)(=O)c1ccc(-c2cc(C(=O)O)cc(-n3cc(-c4ccc(C(F)(F)F)cc4)nn3)c2)s1 [compound 7, 3-(5-(N-(3-Ammopropyl)sulfamoyl)thiophen-2-yl)-5-(4-(4-(trifluoromethyl)phenyl)-1H-1,2,3-triazol-1-yl)benzoic acid]
fold more potent than its Boc derivative 6 [4]: 12 fold

NCCCCNS(=O)(=O)c1ccc(-c2cc(C(=O)O)cc(-n3cc(-c4ccc(C(F)(F)F)cc4)nn3)c2)s1 [compound 9, 3-(5-(N-(4-Ammobutyl)sulfamoyl)thiophen-2-yl)-5-(4-(4-(trifluoromethyl)phenyl)-1H-1,2,3-triazol-1-yl)benzoic acid]
fold less potent than 7 in P2Y14R binding [4]: 3 fold

O=C(O)c1cc(-c2ccc(S(=O)(=O)NCCCCO)s2)cc(-n2cc(-c3ccc(C(F)(F)F)cc3)nn2)c1 [compound 10, 3-(5-(N-(4-Hydroxybutyl)sulfamoyl)thiophen-2-yl)-5-(4-(4-(trifluoromethyl)phenyl)-1H-1,2,3-triazol-1-yl)benzoic acid]
fold less potent than primary aminobutyl congener 9 [4]: 4 fold

CCN(CC)CC.NS(=O)(=O)c1ccc(-c2cc(C(=O)O)cc(-n3cc(-c4ccc(C(F)(F)F)cc4)nn3)c2)cc1 [compound 16, 4'-Sulfamoyl-5-(4-(4-(trifluoromethyl)phenyl)-1H-1,2,3-triazol-1-yl)-[1,1'-biphenyl]-3-carboxylic acid]
fold more potent than thienyl sulfonamide 13 [4]: 10 fold

CC(C)(C)OC(=O)N1CCN(Cc2ccc(-c3cc(C(=O)O)cc(-n4cc(-c5ccc(C(F)(F)F)cc5)nn4)c3)s2)CC1 [compound 17, 3-(5-((4-(tert-Butoxycarbonyl)piperazin-1-yl)methyl)thiophen-2-yl)-5-(4-(4-(trifluoromethyl)phenyl)-1H-1,2,3-triazol-1-yl)benzoic acid]
fold weaker than methylpiperazine 18 ([4]; Boc derivative vs free amine): 34 fold

NCCCNC(=O)c1ccc(-c2cc(C(=O)O)cc(-n3cc(-c4ccc(C(F)(F)F)cc4)nn3)c2)s1 [compound 20, 3-(5-((3-Aminopropyl)carbamoyl)thiophen-2-yl)-5-(4-(4-(trifluoromethyl)phenyl)-1H-1,2,3-triazol-1-yl)benzoic acid]
Off-target interactions in the comprehensive PDSP screen [1]: did not display extensive off-target interactions with biogenic amine receptors

O=C(O)c1cc(-c2ccc(C(=O)N3CCNCC3)s2)cc(-n2cc(-c3ccc(C(F)(F)F)cc3)nn2)c1 [compound 22, 3-(5-(Piperazine-1-carbonyl)thiophen-2-yl)-5-(4-(4-(trifluoromethyl)phenyl)-1H-1,2,3-triazol-1-yl)benzoic acid]
fold less potent than thienyl sulfonamide 12 ([4]; cyclic amines): 2 fold

CCN(CC)CC.NC(=O)c1ccc(-c2cc(C(=O)O)cc(-n3cc(-c4ccc(C(F)(F)F)cc4)nn3)c2)o1 [compound 24, 3-(5-Carbamoylfuran-2-yl)-5-(4-(4-(trifluoromethyl)phenyl)-1H-1,2,3-triazol-1-yl)benzoic acid]
fold less potent than carboxamide 30 [4]: 10 fold

CCN(CC)CC.NC(=O)c1ccc(-c2cc(C(=O)O)cc(-n3cc(-c4ccc(C(F)(F)F)cc4)nn3)c2)cc1 [compound 30, 4'-Carbamoyl-5-(4-(4-(trifluoromethyl)phenyl)-lH-l,2,3-triazol-l-yl)-[l,l'-biphenyl]-3-carboxylic acid]
Off-target interactions in the comprehensive PDSP screen [1]: did not bind appreciably to any other sites
remaining in plasma [5]: 94 – 100 % remaining
remaining in simulated gastric fluid [6]: 100 % remaining
remaining in simulated intestinal fluid [6]: 100 % remaining
oral bioavailability [7]: lack of bioavailability
Papp, apical to basal [8]: 0.0 X 10^−6 cm/sec

FC(F)(F)c1ccc(-c2cn(-c3cc(-c4ccc(C5CCNCC5)cc4)cc(-c4nnn[nH]4)c3)nn2)cc1 [compound 35, 4-(3'-(1H-Tetrazol-5-yl)-5'-(4-(4-(trifluoromethyl)phenyl)-1H-1,2,3-triazol-1-yl)-[1,1'-biphenyl]-4-yl)piperidine]
fold reduction of affinity relative to 2a [4, 9]: 30 fold

NCCCNC(=O)c1ccc(-c2cc(-c3nnn[nH]3)cc(-n3cc(-c4ccc(C(F)(F)F)cc4)nn3)c2)s1 [compound 36a, 5-(3-(1#-Tetrazol-5-yl)-5-(4-(4-(trifluoromethyl)phenyl)-1H-1,2,3-triazol-1-yl)phenyl)-N-(3-aminopropyl)thiophene-2-carboxamide]
fold reduction of affinity relative to 20 [4]: 7 fold

NC(=O)c1ccc(-c2cc(-c3nnn[nH]3)cc(-n3cc(-c4ccc(C(F)(F)F)cc4)nn3)c2)cc1 [compound 36b, 3'-(1H-Tetrazol-5-yl)-5'-(4-(4-(trifluoromethyl)phenyl)-1H-1,2,3-triazol-1-yl)-[1,1'-biphenyl]-4-carboxamide]
fold less potent than carboxamide 30 [4]: 9 fold

CC(C)(C)NC(=O)c1ccc(-c2cc(-c3nnn[nH]3)cc(-n3cc(-c4ccc(C(F)(F)F)cc4)nn3)c2)cc1 [compound 36c, N-(terf-Butyl)-3'-(1H-tetrazol-5-yl)-5'-(4-(4-(trifluoromethyl)phenyl)-1H-1,2,3-triazol-1-yl)-[1,1'-biphenyl]-4-carboxamide]
fold reduction of affinity relative to 34 [4, 9]: 3 fold

O=C(O)c1cc(O)cc(-n2cc(-c3ccc(C(F)(F)F)cc3)nn2)c1 [compound 37a]
fold less potent than carboxamide 30 [4]: 60 fold
